We go through one compound from US10093627B2, “Tetrahydroquinoline derivatives and their use as Epac inhibitors” (Institut National de la Sante et de la Recherche Medicale …, priority 2012, dated 2018).

Experiment [1] deals with Iso-induced ANF-Luc transcriptional activation. The experiment in a line: ANF-Luc transcriptional activation (Firefly luciferase assay) in rat neonatal cardiomyocytes. In kind it is cell-based. The note with it: CE3F4 20 μM, 30 min pretreatment; Iso 10 μM, 8 h; FIG. 4A. How it is done:
ANF and NFAT promoters were fused to the Firefly luciferase gene (ANF-Luc) (NFAT-Luc) to detect ANF and NFAT by Firefly Luciferase assay (see Materiel and Methods).
Rat neonatal cardiomyocytes were cotransfected with ANF-Luc and Epac1 or empty vector pcDNA3 as control. One day after transfection, cells were pretreated or not with CE3F4 (20 μM) for 30 min and stimulated or not with Iso (10 μM) for 8 h. Cells were then assayed for Luciferase activity. B) Iso-induced NFAT-Luc Transcriptional Activation is Blocked by CE3F4: Neonatal cardiomyocytes were transfected with NFAT-Luc. One day later cells were pretreated or not with CE3F4 (20 μM) for 30 min and stimulated or not with Iso (10 μM) for 8 h. The day after, cells were assayed for Luciferase activity.
Results were normalized to control for each experiment, and were expressed as means±S.E.M of at 4 (FIG. 4A) or 5 (FIG. 4B) independent experiments performed in triplicates.
The rat ANF promoter fused to the Firefly luciferase reporter gene (ANF-Luc) by Dr K. Knowlton, Epac and Rap1 plasmid construct (Epac1^WT) by Drs J. L. Bos and J. de Gunzburg, respectively. The Firefly luciferase reporter plasmid driven by four NFAT consensus binding sites (NFAT-Luc) was purchased from Stratagene. […]
Cells were lysed, and luminescence was detected using the Luciferase Assay System (Promega) according to the manufacturer's instructions with Tecan Infinite.

In experiment [2] the test system is Epac1-induced H-Ras activation in HEK293 cells. The experiment in a line: Epac1-induced H-Ras activation, H-Ras-GTP pull-down in HEK293 cells. Type of experiment: cell-based. How it is done: The effects of CE3F4 to prevent Epac1-induced H-Ras activation was determined by extraction of GTP-loaded H-Ras from cell lysates with the immobilized Ras-binding domain of Raf1.
HEK293 cells (FIG. 3A) or rat neonatal cardiac myocytes (FIG. 3B) were transfected with Epac1. 24 h after transfection, cells were preincubated or not with CE3F4 for 30 min and were then treated or not with Sp-007 (10 μM) for 10 min. In FIG. 3C, HEK293 cells overexpressing β1-AR and transfected with Epac1 were pretreated or not with 20 μM of CE3F4 for 30 min and stimulated or not with Iso for 10 min. Amounts of H-Ras-GTP were determined by pull-down assays. The bar graph represents the mean±S.E.M. of 5 (FIG. 3A) or 2 (FIG. 3B, 3C) independent experiments. Results are expressed as the percentage of unstimulated control cells.
Ras and Rap1 pull-down experiments were performed using a GST fusion protein containing respectively the Ras binding domain of Raf1-RBD and the Rap1 binding domain of Ral-GDS as previously described (Métrich et al., 2008). Cells were starved for 1 h before stimulation in MEM free with penicillin-streptomycin (1%). […]

SMILES strings stand for the structures.

As for `CC1CCc2c(cc(Br)c(F)c2Br)N1C=O` (racemic) [CE3F4], the “Effect on Iso-induced ANF-Luc gene transcriptional activity” value in experiment [1] was “significantly inhibited”. In addition, the “Amount of Ras-GTP induced by Iso” value in experiment [2] (HEK293 overexpressing β1-AR, transfected with Epac1, CE3F4 20 μM, 30 min, Iso 10 min, FIG. 3C) was “decreased”. For the same compound, the “Amount of Ras-GTP induced by Sp-007” value in experiment [2] (HEK293 transfected with Epac1, CE3F4 30 min, Sp-007 10 μM, 10 min, FIG. 3A) is given as “decreased”.
